Measurements as given in US9273040B2 (Merck Sharp & Dohme Corp., priority 2011, dated 2016).
pIC50: −log10 of the molar value.

What was measured:
Type in all cases: cell-based
[1] = target: T1, human Nav1.7 channels stably expressed in HEK 293 cells (Homo sapiens, UniProt Q15858); experiment: IonWorks Quattro automated patch-clamp, sodium current, inactivated state block; settings: read-out: potency for the Nav 1.7 sodium ion channel (as measured by IonWorks)
T1 construct: expressed in transfected cells
Description: (§1) Compounds were tested on human Nav1.7 and Nav1.5 channels stably expressed in HEK 293 cells. […] Cells were sealed on a planar substrate using the Population Patch Plate (PPC) technology. Electrical access was obtained using both nystatin and amphotericin. A double-pulse protocol was used for the determination of IC50 values for inactivated state block. Nav1.7 and Nav1.5 expressing cells were voltage clamped at −100 mV and −110 mV, respectively. A depolarizing prepulse to −10 mV (Nav1.7) or −30 mV (Nav1.5) for 1000 ms followed by a 10 ms repolarization to −100 mV (Nav1.7) or −110 mV (Nav1.5) was given to generate fractional channel inactivation of ˜50%, followed by a 10 ms test pulse to −10 mV (Nav1.7) or −30 mV (Nav1.5) to measure peak current in control conditions and after compound addition. The following recording solutions were used (mM). External: 150 NaCl, 2 CaCl2, 5 KCl, 1 Mg Cl2, 10 HEPES, 12 Dextrose; internal: 120 CsF, 30 CsCl, 10 EGTA, 5 HEPES, 5 NaF, 2 MgCl2.
(§2) For all electrophysiology experiments, offline analysis was used to correct for current rundown and to determine percent inhibition as a function of drug concentration. IC50 values were determined by fitting to the Hill equation.

[2] = target: T2, human Nav1.5 channels stably expressed in HEK 293 cells (Homo sapiens, UniProt Q14524); experiment: PatchXpress 7000 automated patch-clamp, sodium current; settings: selectivity over Nav1.5
T2 construct: expressed in transfected cells
Method in brief: (§3)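 IC50 values came from Hill-equation fits of rundown-corrected inhibition. PatchXpress recordings at 22° C held cells 20 mV negative to V0.5 inact and applied 10 Hz trains of 30 ms steps to −20 mV (Nav1.7) or an 8000 ms prepulse 7 mV positive to V0.5 inact. […]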

[3] = target: T1, human Nav1.7 channels stably expressed in HEK 293 cells; experiment: as above; settings: 22° C., read-out: potency for the Nav 1.7 sodium ion channel (as measured by PatchXpress)
Method in brief: as §3

[4] = target: T2, human Nav1.5 channels stably expressed in HEK 293 cells; experiment: IonWorks Quattro automated patch-clamp, sodium current, inactivated state block; settings: selectivity over Nav1.5
Description: as §1, §2

T1 sequence (Q15858 whole entry): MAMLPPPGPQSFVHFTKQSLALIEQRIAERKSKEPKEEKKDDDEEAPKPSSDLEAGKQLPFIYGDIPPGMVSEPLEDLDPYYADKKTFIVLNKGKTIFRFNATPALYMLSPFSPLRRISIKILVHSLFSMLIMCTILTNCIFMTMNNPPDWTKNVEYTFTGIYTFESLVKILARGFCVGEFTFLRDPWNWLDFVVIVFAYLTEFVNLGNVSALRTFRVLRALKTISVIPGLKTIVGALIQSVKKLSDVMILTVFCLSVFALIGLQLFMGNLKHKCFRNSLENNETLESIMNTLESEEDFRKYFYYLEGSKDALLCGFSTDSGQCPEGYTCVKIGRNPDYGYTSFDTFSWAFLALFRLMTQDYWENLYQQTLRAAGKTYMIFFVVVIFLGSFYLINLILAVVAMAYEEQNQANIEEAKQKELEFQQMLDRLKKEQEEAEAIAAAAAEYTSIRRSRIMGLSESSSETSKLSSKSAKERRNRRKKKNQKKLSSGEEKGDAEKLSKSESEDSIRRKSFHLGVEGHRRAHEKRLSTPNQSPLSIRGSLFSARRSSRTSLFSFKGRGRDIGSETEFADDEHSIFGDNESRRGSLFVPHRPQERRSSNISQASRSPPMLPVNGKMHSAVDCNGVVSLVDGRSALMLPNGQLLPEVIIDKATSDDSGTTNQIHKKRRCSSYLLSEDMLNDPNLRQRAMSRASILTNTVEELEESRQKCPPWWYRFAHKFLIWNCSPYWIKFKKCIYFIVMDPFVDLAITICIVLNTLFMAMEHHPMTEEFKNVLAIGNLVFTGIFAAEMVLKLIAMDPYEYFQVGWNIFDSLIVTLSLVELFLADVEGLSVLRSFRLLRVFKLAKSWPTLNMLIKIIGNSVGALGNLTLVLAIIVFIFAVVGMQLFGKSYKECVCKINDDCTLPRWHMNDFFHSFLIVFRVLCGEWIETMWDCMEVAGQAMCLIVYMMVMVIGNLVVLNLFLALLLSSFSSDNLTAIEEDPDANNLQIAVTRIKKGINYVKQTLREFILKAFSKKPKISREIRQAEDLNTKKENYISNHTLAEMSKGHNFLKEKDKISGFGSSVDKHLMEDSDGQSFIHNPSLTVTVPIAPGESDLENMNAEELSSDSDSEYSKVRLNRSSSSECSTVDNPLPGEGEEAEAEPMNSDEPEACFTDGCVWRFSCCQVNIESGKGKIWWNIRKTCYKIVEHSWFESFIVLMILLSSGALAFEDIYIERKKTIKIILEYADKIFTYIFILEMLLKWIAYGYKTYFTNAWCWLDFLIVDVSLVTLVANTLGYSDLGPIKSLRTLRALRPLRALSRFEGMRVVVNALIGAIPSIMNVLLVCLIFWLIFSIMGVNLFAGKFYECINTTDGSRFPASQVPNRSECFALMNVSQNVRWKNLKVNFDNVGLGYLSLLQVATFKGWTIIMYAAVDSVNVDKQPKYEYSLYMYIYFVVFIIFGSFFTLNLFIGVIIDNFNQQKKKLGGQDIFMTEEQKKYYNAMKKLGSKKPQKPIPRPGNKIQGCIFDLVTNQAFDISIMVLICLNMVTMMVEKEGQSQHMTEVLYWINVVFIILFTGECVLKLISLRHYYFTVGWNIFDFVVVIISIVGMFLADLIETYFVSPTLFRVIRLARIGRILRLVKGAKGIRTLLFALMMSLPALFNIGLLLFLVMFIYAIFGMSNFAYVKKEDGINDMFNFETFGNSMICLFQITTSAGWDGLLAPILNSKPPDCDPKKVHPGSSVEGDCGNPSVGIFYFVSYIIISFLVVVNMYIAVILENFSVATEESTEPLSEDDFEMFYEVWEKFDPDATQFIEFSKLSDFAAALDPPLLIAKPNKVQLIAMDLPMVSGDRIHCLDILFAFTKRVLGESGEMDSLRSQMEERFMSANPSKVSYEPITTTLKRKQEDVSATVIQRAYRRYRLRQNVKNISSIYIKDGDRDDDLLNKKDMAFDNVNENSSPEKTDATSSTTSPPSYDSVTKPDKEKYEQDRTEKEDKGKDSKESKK
T2 sequence (Q14524 whole entry): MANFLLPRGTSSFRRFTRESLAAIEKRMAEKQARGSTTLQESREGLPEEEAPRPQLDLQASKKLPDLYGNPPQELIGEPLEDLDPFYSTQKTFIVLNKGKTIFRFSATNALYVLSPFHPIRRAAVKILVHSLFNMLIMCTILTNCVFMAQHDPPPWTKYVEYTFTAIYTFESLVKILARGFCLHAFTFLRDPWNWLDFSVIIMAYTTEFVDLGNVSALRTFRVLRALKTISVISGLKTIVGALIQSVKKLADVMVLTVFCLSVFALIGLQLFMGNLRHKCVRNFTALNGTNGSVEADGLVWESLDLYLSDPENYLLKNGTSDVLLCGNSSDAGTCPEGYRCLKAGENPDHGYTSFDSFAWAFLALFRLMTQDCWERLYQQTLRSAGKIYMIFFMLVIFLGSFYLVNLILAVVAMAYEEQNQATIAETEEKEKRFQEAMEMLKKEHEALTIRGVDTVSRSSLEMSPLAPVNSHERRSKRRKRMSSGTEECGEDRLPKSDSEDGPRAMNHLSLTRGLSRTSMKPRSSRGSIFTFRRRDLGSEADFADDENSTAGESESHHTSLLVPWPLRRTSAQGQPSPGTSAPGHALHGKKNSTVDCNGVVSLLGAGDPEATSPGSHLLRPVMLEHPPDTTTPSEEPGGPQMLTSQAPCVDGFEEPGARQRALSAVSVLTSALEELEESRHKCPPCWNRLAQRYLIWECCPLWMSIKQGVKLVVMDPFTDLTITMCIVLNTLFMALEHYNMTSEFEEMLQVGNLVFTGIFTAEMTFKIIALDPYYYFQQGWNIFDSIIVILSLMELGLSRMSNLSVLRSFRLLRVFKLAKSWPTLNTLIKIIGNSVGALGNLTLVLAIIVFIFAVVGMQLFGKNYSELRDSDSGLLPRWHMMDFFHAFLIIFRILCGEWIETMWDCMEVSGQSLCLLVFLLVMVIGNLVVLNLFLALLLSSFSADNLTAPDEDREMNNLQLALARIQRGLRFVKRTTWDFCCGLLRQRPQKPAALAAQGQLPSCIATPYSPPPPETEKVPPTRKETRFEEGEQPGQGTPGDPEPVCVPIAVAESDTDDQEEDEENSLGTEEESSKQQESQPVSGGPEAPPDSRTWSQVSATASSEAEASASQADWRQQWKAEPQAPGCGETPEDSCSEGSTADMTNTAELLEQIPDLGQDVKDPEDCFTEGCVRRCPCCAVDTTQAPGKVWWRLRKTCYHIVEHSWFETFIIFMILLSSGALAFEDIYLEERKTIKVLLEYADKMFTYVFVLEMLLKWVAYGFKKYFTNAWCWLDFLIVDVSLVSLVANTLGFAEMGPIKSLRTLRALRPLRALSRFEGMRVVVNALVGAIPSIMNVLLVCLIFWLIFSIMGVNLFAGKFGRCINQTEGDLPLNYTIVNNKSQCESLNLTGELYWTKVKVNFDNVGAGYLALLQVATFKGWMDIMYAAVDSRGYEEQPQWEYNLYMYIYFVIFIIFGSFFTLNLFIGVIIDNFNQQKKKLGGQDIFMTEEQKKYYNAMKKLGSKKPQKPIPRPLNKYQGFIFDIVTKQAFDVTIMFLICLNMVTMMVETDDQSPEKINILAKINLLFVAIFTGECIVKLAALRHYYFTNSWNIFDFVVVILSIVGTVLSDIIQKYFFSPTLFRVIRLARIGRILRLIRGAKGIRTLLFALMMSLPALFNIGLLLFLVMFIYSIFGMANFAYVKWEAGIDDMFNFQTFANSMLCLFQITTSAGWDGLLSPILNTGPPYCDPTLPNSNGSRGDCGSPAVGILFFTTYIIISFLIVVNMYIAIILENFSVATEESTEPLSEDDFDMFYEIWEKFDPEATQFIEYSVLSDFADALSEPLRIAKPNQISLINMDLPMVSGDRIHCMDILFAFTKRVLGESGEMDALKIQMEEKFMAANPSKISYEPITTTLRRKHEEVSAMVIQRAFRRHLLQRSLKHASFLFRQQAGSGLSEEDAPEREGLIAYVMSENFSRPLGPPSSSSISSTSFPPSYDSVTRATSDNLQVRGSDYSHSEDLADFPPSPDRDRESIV

SMILES | pIC50 [1] | ratio of Nav 1.5:Nav 1.7 potency, determined by PatchXpress measurement [2] | pIC50 [3] | ratio of Nav 1.5:Nav 1.7 potency, determined by IonWorks measurement [4]
O=c1oc2cc(S(=O)(=O)Nc3ncns3)ccc2n1Cc1ccccc1-c1ccnc(CN2CCCCC2)c1 [Compound 3-10, 2-oxo-3-{2-[2-(piperidin-1-ylmethyl)pyridin-4-yl]benzyl}-N-1,2,4-thiadiazol-5-yl-2,3-dihydro-1,3-benzoxazole-6-sulfonamide] | 5.76 |  |  | 
C=CCC(c1ccccc1)n1c(=O)oc2cc(S(=O)(=O)Nc3ncns3)ccc21 (centres unmarked) [Compound 4-13, 2-oxo-3-(1-phenylbut-3-en-1-yl)-N-1,2,4-thiadiazol-5-yl-2,3-dihydro-1,3-benzoxazole-6-sulfonamide] | 6.57 | 177 | 7.06 | 
O=c1oc2cc(S(=O)(=O)Nc3ncns3)ccc2n1Cc1ccccc1C1=CCCNC1 [Compound 3-6, 2-oxo-3-[2-(1,2,5,6-tetrahydropyridin-3-yl)benzyl]-N-1,2,4-thiadiazol-5-yl-2,3-dihydro-1,3-benzoxazole-6-sulfonamide] | 6.54 | > 91 | 6.48 | 
O=c1oc2cc(S(=O)(=O)Nc3ncns3)ccc2n1Cc1cccc(-c2cccc3c2CNCC3)c1 [Compound 3-13, 2-oxo-3-[3-(1,2,3,4-tetrahydroisoquinolin-8-yl)benzyl]-N-1,2,4-thiadiazol-5-yl-2,3-dihydro-1,3-benzoxazole-6-sulfonamide] | 6.40 |  |  | > 83
NCc1ccc(Cl)cc1Cn1c(=O)oc2cc(S(=O)(=O)Nc3ncns3)ccc21 [Compound 1-15, 3-[2-(aminomethyl)-5-chlorobenzyl]-2-oxo-N-1,2,4-thiadiazol-5-yl-2,3-dihydro-1,3-benzoxazole-6-sulfonamide] | 6.22 |  |  | > 55
O=c1oc2cc(S(=O)(=O)Nc3ncns3)ccc2n1Cc1cccc2ccncc12 [Compound 1-17, 3-(isoquinolin-8-ylmethyl)-2-oxo-N-1,2,4-thiadiazol-5-yl-2,3-dihydro-1,3-benzoxazole-6-sulfonamide] | 6.67 |  |  | 65
O=c1oc2cc(S(=O)(=O)Nc3ncns3)ccc2n1C(c1ccccc1)C1CC1 (centres unmarked) [Compound 4-12, 3-[cyclopropyl(phenyl)methyl]-2-oxo-N-1,2,4-thiadiazol-5-yl-2,3-dihydro-1,3-benzoxazole-6-sulfonamide] | 5.98 |  |  | > 32
O=c1oc2cc(S(=O)(=O)Nc3ncns3)ccc2n1Cc1cccc(C2=CCNCCC2)c1 [Compound 3-17, 2-oxo-3-[3-(2,5,6,7-tetrahydro-1H-azepin-4-yl)benzyl]-N-1,2,4-thiadiazol-5-yl-2,3-dihydro-1,3-benzoxazole-6-sulfonamide] | 6.08 |  |  | > 40
CC(c1ccccn1)n1c(=O)oc2cc(S(=O)(=O)Nc3ncns3)c(F)cc21 (centres unmarked) [Compound 13-6, 5-fluoro-2-oxo-3-(1-pyridin-2-ylethyl)-N-1,2,4-thiadiazol-5-yl-2,3-dihydro-1,3-benzoxazole-6-sulfonamide] | 7.19 |  |  | > 511
O=c1oc2cc(S(=O)(=O)Nc3ncns3)ccc2n1Cc1cccc(-c2ccc3c(c2)CNCC3)c1 [Compound 3-12, 2-oxo-3-[3-(1,2,3,4-tetrahydroisoquinolin-7-yl)benzyl]-N-1,2,4-thiadiazol-5-yl-2,3-dihydro-1,3-benzoxazole-6-sulfonamide] | 6.54 | 55 | 6.26 | 
CCCN1CCc2cccc(Cn3c(=O)oc4cc(S(=O)(=O)Nc5ncns5)ccc43)c2C1 [Compound 6-3, 2-oxo-3-[(2-propyl-1,2,3,4-tetrahydroisoquinolin-8-yl)methyl]-N-1,2,4-thiadiazol-5-yl-2,3-dihydro-1,3-benzoxazole-6-sulfonamide] | 6.19 |  |  | 
O=c1oc2cc(S(=O)(=O)Nc3ncns3)ccc2n1Cc1cccc2c1CCNC2 [Compound 1-16, 2-oxo-3-(1,2,3,4-tetrahydroisoquinolin-5-ylmethyl)-N-1,2,4-thiadiazol-5-yl-2,3-dihydro-1,3-benzoxazole-6-sulfonamide] | 5.77 | > 9 | 5.49 | 
O=c1oc2cc(S(=O)(=O)Nc3ncns3)ccc2n1Cc1cccc(C2=CC3CCC(C2)N3)c1 (centres unmarked) [Compound 3-18, 3-[3-(8-azabicyclo[3.2.1]oct-2-en-3-yl)benzyl]-2-oxo-N-1,2,4-thiadiazol-5-yl-2,3-dihydro-1,3-benzoxazole-6-sulfonamide] | 5.88 |  |  | 
O=c1oc2cc(S(=O)(=O)Nc3ncns3)ccc2n1Cc1cccc(-c2cccc3c2CCNC3)c1 [Compound 3-14, 2-oxo-3-[3-(1,2,3,4-tetrahydroisoquinolin-5-yl)benzyl]-N-1,2,4-thiadiazol-5-yl-2,3-dihydro-1,3-benzoxazole-6-sulfonamide] | 6.37 |  |  | 35
O=c1oc2cc(S(=O)(=O)Nc3ncns3)ccc2n1Cc1cccc(C2=CCNCC2)c1 [Compound 3-16, 2-oxo-3-[3-(1,2,3,6-tetrahydropyridin-4-yl)benzyl]-N-1,2,4-thiadiazol-5-yl-2,3-dihydro-1,3-benzoxazole-6-sulfonamide] | 6.12 |  |  | > 43
O=c1oc2cc(S(=O)(=O)Nc3ncns3)ccc2n1Cc1cccc(C2=CCCNC2)c1 [Compound 3-15, 2-oxo-3-[3-(1,2,5,6-tetrahydropyridin-3-yl)benzyl]-N-1,2,4-thiadiazol-5-yl-2,3-dihydro-1,3-benzoxazole-6-sulfonamide] | 6.19 |  |  | 
O=c1oc2cc(S(=O)(=O)Nc3ncns3)ccc2n1C(c1ccccc1)c1ncco1 (centres unmarked) [Compound 4-10, 3-[1,3-oxazol-2-yl(phenyl)methyl]-2-oxo-N-1,2,4-thiadiazol-5-yl-2,3-dihydro-1,3-benzoxazole-6-sulfonamide] | 5.88 | > 47 | 6.19 | 
C[C@H](c1ccccc1C#CC1CCNC1)n1c(=O)oc2cc(S(=O)(=O)Nc3ncns3)c(F)cc21 (stereo partly drawn) [Compound 17-14, 5-fluoro-2-oxo-3-{(1R)-1-[2-(pyrrolidin-3-ylethynyl)phenyl]ethyl}-N-1,2,4-thiadiazol-5-yl-2,3-dihydro-1,3-benzoxazole-6-sulfonamide] |  | 1055 | 7.47 | 
O=c1oc2cc(S(=O)(=O)Nc3ncns3)c(F)cc2n1Cc1cccc2c1CC(N1CCCC1)CC2 (racemic) [Compound 23-20, (+/−)-5-fluoro-2-oxo-3-[(7-pyrrolidin-1-yl-5,6,7,8-tetrahydronaphthalen-1-yl)methyl]-N-1,2,4-thiadiazol-5-yl-2,3-dihydro-1,3-benzoxazole-6-sulfonamide] |  | 802 | 7.52 | 
O=c1oc2cc(S(=O)(=O)Nc3ncns3)c(F)cc2n1[C@@H]1CC2(CCC2)Oc2ccccc21 [Compound 39-14, 3-[(4R)-3,4-dihydrospiro[chromene-2,1′-cyclobutan]-4-yl]-5-fluoro-2-oxo-N-1,2,4-thiadiazol-5-yl-2,3-dihydro-1,3-benzoxazole-6-sulfonamide] |  | 99 | 7.22 | 
O=c1oc2cc(S(=O)(=O)Nc3ncns3)c(F)cc2n1Cc1cccc2c1CC(NCCF)CC2 (racemic) [Compound 23-21, (+/−)-5-fluoro-3-({7-[(2-fluoroethyl)amino]-5,6,7,8-tetrahydronaphthalen-1-yl}methyl)-2-oxo-N-1,2.4-thiadiazol-5-yl-2,3-dihydro-1,3-benzoxazole-6-sulfonamide] |  | 920 | 7.55 | 
C[C@@H](c1cccc2ccncc12)n1c(=O)oc2cc(S(=O)(=O)Nc3ncns3)c(F)cc21 [Compound 14-10, 5-fluoro-3-[(1S)-1-isoquinolin-8-ylethyl]-2-oxo-N-1,2,4-thiadiazol-5-yl-2,3-dihydro-1,3-benzoxazole-6-sulfonamide] |  | 27 | 6.11 | 
CNCC#Cc1ccccc1[C@@H](C)n1c(=O)oc2cc(S(=O)(=O)Nc3ncns3)c(F)cc21 [Compound 17-11, 5-fluoro-3-[(1R)-1-{2-[3-(methylamino)prop-1-yn-1-yl]phenyl}ethyl]-2-oxo-N-1,2,4-thiadiazol-5-yl-2,3-dihydro-1,3-benzoxazole-6-sulfonamide] |  | 589 | 7.29 | 
